Tests used:
Type in all cases: biochemical
human KDR enzyme = molecular target: T1, human KDR enzyme (Homo sapiens, UniProt P35968); assay: KDR substrate (PLCγ) phosphorylation, scintillation assay; conditions: 10 μM; for inhibition at 10 µM: read-out: KDR % inhib at 10 μM
T1 construct: The cytoplasmic domain of the human KDR enzyme; GST; made in house; host or cells: SF21 insect cells (baculovirus)
Method: The inhibitory effect of the compounds is determined in an assay of substrate phosphorylation by the KDR enzyme in vitro using a scintillation technique (96-well plate, NEN).
The cytoplasmic domain of the human KDR enzyme was cloned in the form of a GST fusion into the baculovirus expression vector pFastBac. The protein was expressed in SF21 cells and purified to approximately 60% homogeneity.
The KDR kinase activity is measured in 20 mM MOPS, 10 mM MgCl2, 10 mM MnCl2, 1 mM DTT, 2.5 mM EGTA, 10 mM β-glycerophosphate, pH=7.2, in the presence of 10 mM MgCl2, 100 μM Na3VO4, 1 mM NaF. 10 μl of the compound are added to 70 μl of kinase buffer containing 100 ng of KDR enzyme at 4° C. The reaction is triggered by adding 20 μl of solution containing 2 μg of substrate (SH2-SH3 fragment of PLCγ expressed in the form of a GST fusion protein), 2 μCi γ^33P[ATP] and 2 μM cold ATP. After incubation for 1 hour at 37° C., the reaction is stopped by adding 1 volume (100 μl) of 200 mM EDTA. The incubation buffer is removed and the wells are washed three times with 300 μl of PBS. The radioactivity is measured in each well using Top Count NXT radioactivity counter (Packard).
The background noise is determined by measuring the radioactivity in four different wells containing the radioactive ATP and the substrate alone.
A control for total activity is measured in four different wells containing all the reagents (γ^33P-[ATP], KDR and PLCγ substrate) but in the absence of compound.
The inhibition of the KDR activity with the compound of the invention is expressed as percentage inhibition of the control activity determined in the absence of compound.
The compound SU5614 (Calbiochem) (1 μM) is included in each plate as an inhibition control.

human FAK = molecular target: T2, human FAK (Homo sapiens, UniProt Q05397); assay: FAK autophosphorylation inhibition, time resolved fluorescence (HTRF) assay; conditions: for inhibition at 30 µM: 30 μM (values marked *), read-out: FAK % inhib at 30* μM; for inhibition at 10 µM: read-out: FAK % inhib at 10 μM
T2 construct: The complete cDNA of human FAK; made in house; host or cells: baculovirus expression system (vector pFastBac HTc)
Method: The inhibitory activity of the compounds on FAK is determined by measuring the inhibition of the autophosphorylation of the enzyme using a time resolved fluorescence (HTRF) assay.
The complete cDNA of human FAK, the N-terminal end of which was labeled with histidine, was cloned into a baculovirus expression vector pFastBac HTc. The protein was expressed and purified to approximately 70% homogeneity.
The kinase activity is determined by incubating the enzyme (6.6 μg/ml) with various concentrations of test compound in a 50 mM Hepes buffer, pH=7.2, containing 10 mM MgCl2, 100 μM Na3VO4 and 15 μM d'ATP for 1 hour at 37° C. The enzyme reaction is stopped by adding Hepes buffer, pH=7.0, containing […], 133 mM EDTA and 0.1% BSA, and the labeling is carried out, over 1 to 2 hours at ambient temperature, by adding to this buffer an anti-Histidine antibody labeled with XL665 and a monoclonal antibody phosphospecific for tyrosine, conjugated to europium cryptate (Eu-K). The characteristics of the two fluorophores are available in G. Mathis et al., Anticancer Research, 1997, 17, pages 3011-3014. The transfer of energy from the excited europium cryptate to the XL665 acceptor is proportional to the degree of autophosphorylation of FAK. The long-lived signal specific for XL-665 is measured in a Packard Discovery plate counter. All the assays are carried out in duplicate and the mean of the two assays is calculated. The inhibition of the FAK autophosphorylation activity with compounds of the invention is expressed as percentage inhibition compared to a control whose activity is measured in the absence of test compound. The [signal at 665 nm/signal at 620 nm] ratio is used for the calculation of the % inhibition.

Aurora2 kinase = molecular target: T3, Aurora2 kinase (Homo sapiens, UniProt O14965); assay: Aurora2 kinase radioactivity scintillation assay using nickel chelate (NuMA substrate); conditions: 10 μM; for inhibition at 10 µM: read-out: Aurora2 % inhib at 10 μM
T3 construct: A complete recombinant Aurora2 enzyme; His tag (N); made in house; host or cells: E. coli
T3 sequence (O14965 1-403): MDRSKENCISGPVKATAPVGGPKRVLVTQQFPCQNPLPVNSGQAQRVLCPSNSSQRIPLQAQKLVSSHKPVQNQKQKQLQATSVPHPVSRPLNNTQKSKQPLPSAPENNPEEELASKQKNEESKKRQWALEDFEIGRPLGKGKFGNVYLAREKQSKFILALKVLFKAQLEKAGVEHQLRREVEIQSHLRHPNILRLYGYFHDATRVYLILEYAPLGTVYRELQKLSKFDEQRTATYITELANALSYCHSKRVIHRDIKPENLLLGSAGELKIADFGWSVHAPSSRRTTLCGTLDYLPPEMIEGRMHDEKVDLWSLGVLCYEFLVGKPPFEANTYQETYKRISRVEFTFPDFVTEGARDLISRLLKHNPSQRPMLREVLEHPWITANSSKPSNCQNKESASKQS
Method: The inhibitory effect of compounds with respect to the Aurora2 kinase is determined with a radioactivity scintillation assay using nickel chelate.
A complete recombinant Aurora2 enzyme, the N-terminal end of which was labeled with histidine, was expressed in E. coli and purified to a quality close to homogeneity.
The C-terminal fragment (Q1687-H2101) of a NuMA (Nuclear protein that associates with the Mitotic Apparatus) expressed in E. coli, and the N-terminal end of which was labeled with histidine, was purified by nickel chelate chromatography and used as substrate in the Aurora2 kinase assay. In order to determine the kinase activity, the NuMA substrate is equilibrated by chromatography on a Pharmacia PD10 column, in a buffer (50 mM Tris HCl, pH7.5, 50 mM NaCl, 10 mM MgCl2) to which 10% (v/v) of glycerol and 0.05% (w/v) of NP40 have been added.
The kinase acivitity of Aurora2 is measured by scintillation with nickel chelate (New England Nuclear, model SMP107). Each well contains 100 μl of the following solution: 0.02 μM of Aurora2; 0.5 μM of NuMA substrate; 1 μM of ATP to which 0.5 μCi of ATP-[^33P] has been added. The solutions are incubated for 30 minutes at 37° C. The assay buffer is then removed and the wells are rinsed twice with 300 μl of kinase buffer. The radioactivity is measured in each well using a Packard Model Top Count NXT device.
The background noise is deduced from the measurement of radioactivity by measuring, in duplicate, in wells containing the radioactive ATP alone containing buffered kinase treated in the same way as the other samples.
The activity of the control is determined by measuring, in duplicate, the radioactivity in the complete assay mixture (ATP, Aurora2 and the NuMA substrate) in the absence of test compound.
The inhibition of the Aurora2 with a compound of the invention is expressed as percentage inhibition of the control activity in the absence of test compound. Staurosporine is added to each plate as an inhibition control.

[1] = 10 μM (values without asterisk)

T2 sequence (Q05397 whole entry): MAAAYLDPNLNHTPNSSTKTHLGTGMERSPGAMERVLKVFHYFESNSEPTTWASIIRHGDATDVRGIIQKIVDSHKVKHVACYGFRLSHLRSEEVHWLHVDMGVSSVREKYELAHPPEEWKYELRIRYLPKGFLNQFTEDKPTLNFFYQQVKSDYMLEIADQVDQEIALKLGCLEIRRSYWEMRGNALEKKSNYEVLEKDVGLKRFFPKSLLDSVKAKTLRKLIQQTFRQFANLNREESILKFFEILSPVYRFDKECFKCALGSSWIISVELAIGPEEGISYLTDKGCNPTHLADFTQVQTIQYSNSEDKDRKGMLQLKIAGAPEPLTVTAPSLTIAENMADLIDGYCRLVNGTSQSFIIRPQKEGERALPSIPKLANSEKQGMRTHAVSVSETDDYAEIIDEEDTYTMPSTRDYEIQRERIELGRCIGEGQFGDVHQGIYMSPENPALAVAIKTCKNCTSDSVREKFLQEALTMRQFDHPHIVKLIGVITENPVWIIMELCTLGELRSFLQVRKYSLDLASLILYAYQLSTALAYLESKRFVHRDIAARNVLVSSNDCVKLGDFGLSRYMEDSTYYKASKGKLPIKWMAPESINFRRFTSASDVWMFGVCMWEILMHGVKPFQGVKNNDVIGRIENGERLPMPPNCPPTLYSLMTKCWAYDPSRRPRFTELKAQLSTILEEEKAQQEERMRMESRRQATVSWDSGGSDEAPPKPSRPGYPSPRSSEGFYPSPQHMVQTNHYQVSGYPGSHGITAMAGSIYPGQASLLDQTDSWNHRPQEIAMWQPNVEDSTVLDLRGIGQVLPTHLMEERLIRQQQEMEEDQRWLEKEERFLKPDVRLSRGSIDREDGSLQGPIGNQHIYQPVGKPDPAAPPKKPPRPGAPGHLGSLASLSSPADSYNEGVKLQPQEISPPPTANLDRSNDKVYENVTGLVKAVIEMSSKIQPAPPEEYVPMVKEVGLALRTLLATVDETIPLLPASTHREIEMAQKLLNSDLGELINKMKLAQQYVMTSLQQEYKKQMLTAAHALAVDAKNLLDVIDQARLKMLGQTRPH
T1 sequence (P35968 786-1356 limits assumed): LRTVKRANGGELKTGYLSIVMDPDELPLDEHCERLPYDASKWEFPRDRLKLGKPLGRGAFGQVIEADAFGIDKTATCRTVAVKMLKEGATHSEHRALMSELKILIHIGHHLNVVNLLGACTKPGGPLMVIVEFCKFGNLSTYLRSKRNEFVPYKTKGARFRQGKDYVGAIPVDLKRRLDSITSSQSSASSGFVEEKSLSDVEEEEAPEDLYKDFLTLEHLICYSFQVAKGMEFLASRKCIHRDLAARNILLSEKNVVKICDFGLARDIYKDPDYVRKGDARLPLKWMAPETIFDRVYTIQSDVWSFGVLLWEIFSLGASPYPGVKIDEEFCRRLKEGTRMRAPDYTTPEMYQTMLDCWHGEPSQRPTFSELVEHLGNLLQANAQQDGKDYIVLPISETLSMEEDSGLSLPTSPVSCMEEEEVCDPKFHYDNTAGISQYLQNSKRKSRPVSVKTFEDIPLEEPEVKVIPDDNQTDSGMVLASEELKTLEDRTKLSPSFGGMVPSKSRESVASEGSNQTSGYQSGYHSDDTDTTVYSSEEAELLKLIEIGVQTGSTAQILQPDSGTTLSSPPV

Row | SMILES | inhibition at 10 µM (human KDR enzyme) [%] | inhibition at 10 µM (human FAK; [1]) [%] | inhibition at 10 µM (Aurora2 kinase) [%] | other results
1 | O=S(=O)(Nc1ccc2[nH]nc(Cl)c2c1)c1ccc(Cl)c(Cl)c1 [Example 2, N-(3-Chloro-1H-indazol-5-yl)-3,4-dichlorobenzenesulfonamide] | 43 |  |  | inhibition at 30 µM (human FAK): 75%
2 | CS(=O)(=O)c1ccccc1S(=O)(=O)Nc1ccc2[nH]nc(C#N)c2c1 [Example 5, N-(3-Cyano-1H-indazol-5-yl)-2-methylsulfonylbenzenesulfonamide] | 26 |  |  | inhibition at 30 µM (human FAK): 80%
3 | O=S(=O)(Nc1cccc(F)c1)c1ccc2[nH]ncc2c1 [Example 11, N-(3-Fluorophenyl)-(1H-indazol-5-yl)sulfonamide] | 7 | 59 |  | 
4 | O=S(=O)(Nc1ccc2[nH]nc(I)c2c1)c1cccc(F)c1 [Example 12, 3-Fluoro-N-(3-iodo-1H-indazol-5-yl)benzenesulfonamide] | 39 |  |  | inhibition at 30 µM (human FAK): 92%
5 | O=S(=O)(Nc1ccc2[nH]ncc2c1)c1cccc(F)c1 [Example 15, 3-Fluoro-N-(1H-indazol-5-yl)benzenesulfonamide] | 13 |  |  | inhibition at 30 µM (human FAK): 67%
6 | O=S(=O)(Nc1ccc2[nH]nc(O)c2c1)c1cccc(F)c1 [Example 16, 3-Fluoro-N-(3-hydroxy-1H-indazol-5-yl)benzenesulfonamide] | 8 | 58 |  | 
7 | O=S(=O)(Oc1ccc2[nH]ncc2c1)c1cccc(F)c1 [Example 17, 1H-Indazol-5-yl 3-fluorobenzenesulfonate] | 46 | 59 |  | 
8 | CNC(=O)c1n[nH]c2ccc(NS(=O)(=O)c3cccc(F)c3)cc12 [Example 19, N-Methyl-5-(3-fluorobenzenesulfonylamino)-1H-indazole-3-carboxamide] | 73 | 85 |  | 
9 | CS(=O)(=O)c1ccccc1S(=O)(=O)Nc1ccc2[nH]nc(C(N)=O)c2c1 [Example 20] | 28 | 76 |  | 
10 | NC(=O)c1n[nH]c2ccc(NS(=O)(=O)c3cccc(F)c3)cc12 [Example 21] | 80 |  |  | inhibition at 30 µM (human FAK): 76%
11 | O=C(Nc1ccccc1)c1n[nH]c2ccc(NS(=O)(=O)c3cccc(F)c3)cc12 [Example 22, N-Phenyl-5-(3-fluorobenzenesulfonylamino)-1H-indazole-3-carboxamide] | 18 | 89 | 84 | 
12 | CS(=O)(=O)Nc1n[nH]c2ccc(NS(=O)(=O)c3cccc(F)c3)cc12 [Example 27, 3-Fluoro-N-(3-methylsulfonylamino-1H-indazol-5-yl)benzenesulfonamide] | 13 | 6 | 76 | 
13 | CC(=O)Nc1n[nH]c2ccc(NS(=O)(=O)c3cccc(F)c3)cc12 [Example 28, N-[5-(3-Fluorobenzenesulfonylamino)-1H-indazol-3-yl)acetamide] | 24 | 84 | 92 | 
14 | CC(=O)Nc1ccccc1-c1n[nH]c2ccc(NS(=O)(=O)c3cccc(F)c3)cc12 [Example 47, N-{2-[5-(3-Fluorobenzenesulfonylamino)-1H-indazol-3-yl]phenyl}acetamide] | 25 | 32 | 65 | 
15 | CS(=O)(=O)c1ccccc1S(=O)(=O)Nc1ccc2[nH]nc(-c3cccc(C(=O)O)c3)c2c1 [Example 56, 3-[5-(2-Methylsulfonylbenzenesulfonamino)-1H-indazol-3-yl]benzoic acid] | 82 | 81 | 87 | 
16 | CS(=O)(=O)c1ccccc1S(=O)(=O)Nc1ccc2[nH]nc(-c3cccc4cccnc34)c2c1 [Example 67, 2-Methylsulfonyl-N-(3-quinolin-8-yl-1H-indazol-5-yl)benzenesulfonamide] | 28 | 79 | 90 | 
17 | O=S(=O)(Nc1ccc2[nH]nc(-c3cc4ccccc4[nH]3)c2c1)c1cccs1 [Example 87, {N-[3-(1H-indol-2-yl)-1H-indazol-5-yl]}thiophene-2-sulfonamide] | 100 | 91 | 100 | 
18 | O=S(=O)(Nc1ccc2[nH]nc(-c3ccccc3)c2c1)c1ccc(Br)cc1 [Example 116, 4-Bromo-N-(3-phenyl-1H-indazol-5-yl)-benzenesulfonamide] | 81 | 20 | 69 | 
19 | CC(=O)Nc1ccc(S(=O)(=O)Nc2ccc3[nH]nc(-c4ccccc4)c3c2)cc1 [Example 118, N-[4-(3-Phenyl-1H-indazol-5-ylsulfamoyl)phenyl]acetamide] |  |  |  | Aurora2 % inhib at 10 μM (Aurora2 kinase): 52%; KDR % inhib at 10 μM (human KDR enzyme): 53%; FAK % inhib at 10 μM (human FAK; 10 μM (values without asterisk), 10 µM): 8%
20 | CS(=O)(=O)c1ccccc1S(=O)(=O)Oc1ccc2[nH]nc(-c3nc4ccccc4[nH]3)c2c1 [Example 226, 3-(1H-Benzimidazol-2-yl)-1H-indazol-5-yl-2-methanesulfonylbenzenesulfonate] |  |  | 100 | 
21 | CS(=O)(=O)c1ccccc1S(=O)(=O)Oc1ccc2[nH]nc(-c3cc4ccccc4[nH]3)c2c1 [Example 227] |  |  | 100 | 
